Drawing on ChEMBL document CHEMBL1129937, “Synthesis and dihydrofolate reductase inhibitory activities of 2,4-diamino-5-deaza and 2,4-diamino-5,10-dideaza lipophilic antifolates” (J Med Chem, 1997), this text covers IC50 for twelve compounds.

The target in assay [1] is T1, Dihydrofolate reductase (Rattus norvegicus, UniProt Q920D2).
T1 sequence (Q920D2 whole entry): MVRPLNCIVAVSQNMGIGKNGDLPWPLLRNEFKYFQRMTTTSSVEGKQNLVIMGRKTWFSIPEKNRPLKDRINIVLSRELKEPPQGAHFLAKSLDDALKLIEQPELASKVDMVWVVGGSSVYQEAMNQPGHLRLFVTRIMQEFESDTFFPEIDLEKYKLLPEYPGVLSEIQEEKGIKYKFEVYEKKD
Description: Inhibitory concentration against Dihydrofolate reductase from Rat liver (rl)

Assay [2] addresses T2, Bifunctional dihydrofolate reductase-thymidylate synthase (Toxoplasma gondii, UniProt Q07422).
T2 sequence (Q07422 whole entry): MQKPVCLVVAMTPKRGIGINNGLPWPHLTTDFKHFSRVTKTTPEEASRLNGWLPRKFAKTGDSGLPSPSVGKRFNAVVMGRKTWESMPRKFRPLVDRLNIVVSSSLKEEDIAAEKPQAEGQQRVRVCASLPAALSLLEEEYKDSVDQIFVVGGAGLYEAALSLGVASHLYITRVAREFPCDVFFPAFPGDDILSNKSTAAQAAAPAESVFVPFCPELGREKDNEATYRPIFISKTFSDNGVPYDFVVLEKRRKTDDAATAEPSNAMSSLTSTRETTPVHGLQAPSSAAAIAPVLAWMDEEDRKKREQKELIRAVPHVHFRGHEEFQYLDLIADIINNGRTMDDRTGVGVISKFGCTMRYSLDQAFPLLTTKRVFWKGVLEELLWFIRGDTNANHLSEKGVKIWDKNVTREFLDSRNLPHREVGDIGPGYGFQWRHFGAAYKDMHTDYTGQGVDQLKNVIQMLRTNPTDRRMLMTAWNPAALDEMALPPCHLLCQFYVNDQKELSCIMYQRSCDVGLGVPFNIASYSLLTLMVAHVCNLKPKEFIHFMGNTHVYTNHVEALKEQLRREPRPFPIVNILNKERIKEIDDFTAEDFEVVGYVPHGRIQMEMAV
Description: Inhibitory concentration against Dihydrofolate reductase from Toxoplasma gondii (tg)

The target of assay [3] is T3, Dihydrofolate reductase (Pneumocystis carinii, UniProt P16184).
T3 sequence (P16184 whole entry): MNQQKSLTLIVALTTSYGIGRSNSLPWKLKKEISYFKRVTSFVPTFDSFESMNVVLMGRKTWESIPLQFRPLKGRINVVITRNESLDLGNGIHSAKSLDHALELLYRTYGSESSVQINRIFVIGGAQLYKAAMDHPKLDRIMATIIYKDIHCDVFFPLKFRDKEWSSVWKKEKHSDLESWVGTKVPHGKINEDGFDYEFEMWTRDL
Description: Inhibitory concentration against Dihydrofolate reductase from Pneumocystis carinii (pc)

`COc1ccc(CCC2CNc3nc(N)nc(N)c3C2)cc1OC` (stereo unspecified): the results for the concentration for half-maximal inhibition (IC50) (against Dihydrofolate reductase [1]; in assay [2]) were 2100 nM and 1100 nM, respectively.

Turning to `COc1ccc(/C=C/c2cnc3nc(N)nc(N)c3c2)cc1OC`, the IC50 turned out to be 2600 nM against Dihydrofolate reductase [3], 2100 nM against Dihydrofolate reductase [1] and 1400 nM in assay [2].

For the compound `COc1cc(N(C)Cc2cnc3nc(N)nc(N)c3c2)cc(OC)c1OC`, at Dihydrofolate reductase [1], 280 nM corresponded to half-maximal inhibition (IC50). This counts as sub-micromolar.

For the compound `COc1cc(/C=C/c2cnc3nc(N)nc(N)c3c2)cc(OC)c1OC`, the IC50 against Dihydrofolate reductase [3] was above 5000 nM; against Dihydrofolate reductase [1] it was 12900 nM; in assay [2], 1400 nM.

Turning to `COc1cc(N(C=O)Cc2cnc3nc(N)nc(N)c3c2)cc(OC)c1OC`, the figures for the IC50 (on Dihydrofolate reductase [3]; against Dihydrofolate reductase [1]; in assay [2]) were 18500 nM, 7400 nM and 1100 nM, respectively.

Turning to `CCN(Cc1cnc2nc(N)nc(N)c2c1)c1cc(OC)c(OC)c(OC)c1`, the IC50 came to 190 nM at Dihydrofolate reductase [3], 120 nM at Dihydrofolate reductase [1] and 49 nM in assay [2].

`COc1cc(NCc2cnc3nc(N)nc(N)c3c2)cc(OC)c1OC`: the IC50 worked out at 1900 nM on Dihydrofolate reductase [1] and 300 nM in assay [2].

Turning to `COc1cc(CCC2CNc3nc(N)nc(N)c3C2)cc(OC)c1OC` (stereo unspecified), the figures for the IC50 (against Dihydrofolate reductase [3]; against Dihydrofolate reductase [1]; in assay [2]) were 61700 nM, 6100 nM and 470 nM, respectively.

Consider `COc1ccc(/C=C/c2cnc3nc(N)nc(N)c3c2)cc1`, for which the IC50 against Dihydrofolate reductase [3] is 5300 nM; against Dihydrofolate reductase [1], 11800 nM; in assay [2] it was 1500 nM.

Turning to `COc1cc(CCc2cnc3nc(N)nc(N)c3c2)cc(OC)c1OC`, the IC50 worked out at 1140 nM against Dihydrofolate reductase [1] and 200 nM in assay [2].

Turning to `COc1ccc(CCc2cnc3nc(N)nc(N)c3c2)cc1`, the IC50 worked out at 290 nM against Dihydrofolate reductase [3], 260 nM against Dihydrofolate reductase [1] and 250 nM in assay [2].

As for `COc1ccc(CCc2cnc3nc(N)nc(N)c3c2)cc1OC`, the IC50 on Dihydrofolate reductase [3] is 1400 nM; on Dihydrofolate reductase [1] it was 610 nM; in assay [2], 200 nM.
